The text below walks through data of patent US20250000885A1, “COMPOSITION COMPRISING TWO OR MORE OLIGOSACCHARIDES” (Children's Hospital Los Angeles, priority 2022, published 2025).

The test system of experiment [1] is infant brain tissue microstructure. Briefly: Diffusion Tensor Imaging (FA, MD) of newborn brain vs HMO concentration in mother's milk at 1-month, voxel-wise multiple linear regression. The format is in vivo, human. Conditions: for association of exposure with FA values / association of exposure with MD values: milk concentration at 1-month, total sample N=20, FDR-corrected. An excerpt: (§1) Twenty mother-infant pairs were recruited from maternity clinics in Los Angeles County as part of a larger cohort study, and inclusion criteria has been previously described. Briefly, mothers were included if they were ≥18 years old at delivery, had given birth to a full-term singleton newborn, were breastfeeding, and were enrolled within 1 month from delivery. […] The Institutional Review Board of Children's Hospital Los Angeles approved all procedures. Participants provided written informed consent prior to data collection.
(§2) Mother-infant pairs were assessed at 1-month postpartum. Historical health-related information was collected. Mothers pumped a full expression of breast milk that was analyzed for individual HMO concentrations. Infants underwent magnetic resonance imaging (MRI) scanning at approximately 1-month postpartum to assess brain tissue microstructure and regional cerebral blood flow (rCBF).
(§3) Breast milk was collected and analyzed following standard procedures. Mothers were asked to avoid eating and drinking for 1-hour and feeding or pumping breast milk for 1.5-hours before collection. Mothers were encouraged to pump the entire contents of a single breast expression to ensure collection of fore, mid, and hind milk to standardize milk collection as much as possible. Aliquots were stored at −80° C. until HMO characterization at the University of California San Diego. Raffinose was added to each sample as an internal standard for absolute quantification. HMOs were isolated with high-throughput solid-phase extraction, fluorescently labeled, and measured using HPLC. Nineteen HMOs were quantified based on standard retention times and mass spectrometric analysis, which accounted for >90% of total HMO composition. The initial focus, however, was on the most abundant fucosylated and sialylated HMOs reported to influence brain development in animals and infants: 2′FL, 3FL, 3′SL, and 6′SL. Secretor status was defined by the presence or near absence of HMOs 2′FL or lacto-N-fucopentaose I.
(§4) MRI data were collected on a 3 Tesla Philips Achieva MRI scanner equipped with a 32-channel receive-only head coil. All data were acquired without sedation or contrast agent. Mothers and staff lulled infants to sleep with feeding and swaddling. Scans were visually monitored and repeated for any visible motion. Detailed image quality was assessed during preprocessing within 48 hours of scan acquisition.
Diffusion Tensor Imaging (DTI), which measures the diffusion of water as influenced by characteristics of brain tissue microstructure: The template brain was selected using a 2-step procedure to find the brain that was morphologically representative of all brains in our sample, as described in FIG. 1. Quality assurance procedures were instituted to exclude datasets with excessive motion. The diffusion tensor (D) was estimated at each voxel of the pre-processed DTI data in DSI Studio (RRID:SCR_009557) and computed the scalar indices fractional anisotropy (FA), mean diffusivity (MD), axial diffusivity (AD), and radial diffusivity (RD). These maps were edited to remove nonbrain tissue and then were threshed to remove background noise. Edited MD map was used to mask out nonbrain tissue in the FA, AD, and RD maps. The edited maps for each infant were coregistered using a rigid body transformation (3 translations and 3 rotations) to the infant's T1-weighted (T1w) anatomical image, which were in turn used as an intermediary source to coregister the maps for each infant to the final template brain. The FA, AD, MD, and RD maps were then smoothed using a Gaussian kernel with FWHM=4 mm.
Descriptive statistics are presented as mean±standard deviation (SD) for continuous variables and as frequency (percentage) for categorical variables. Normal distribution and homogeneity of variances were confirmed by Shapiro-Wilks W and Levene's tests. Values >3 SD from the mean were identified as outliers. […]

In a further experiment the test system is piglets. Conditions: cited from earlier work; for learning and memory tasks compared to controls: piglets fed the substance; for cognitive performance: piglets, feeding.
Experiment [2] relates to infant regional cerebral blood flow (rCBF). As to the kind of experiment: Arterial Spin Labeling (rCBF) of newborn brain vs HMO concentration in mother's milk at 1-month, voxel-wise multiple linear regression. The class given is in vivo, human. Conditions: for association of exposure with rCBF: milk concentration at 1-month, total sample N=20, FDR-corrected; for B, association of exposure with rCBF: white matter.
Description: as §1, §2, §3, §4
Arterial Spin Labeling (ASL), which quantifies rCBF, a surrogate measure of cellular metabolism: The rCBF brain images and the Mo_wM image to the first rCBF image for each participant were aligned in native imaging space to correct for head motion. Images with >0.5 mm inter-frame motion were excluded from further processing. […] An in-house software was used to construct for each infant a voxel-wise map of rCBF from the ASL time series and Mo_wm image: 1) pair-wise subtracted the control images from the labeled images; 2) Perfusion-weighted images were calculated by pair-wise subtraction of the control and labeled images, followed by averaging across the imaging time series. The perfusion map (rCBF) was calculated using a single compartment model. A linear transformation with 6 degrees of freedom was used to coregister the quantitative rCBF maps for each infant to their T1-weighted anatomical images, which were in turn used as an intermediary source to coregister the rCBF images for each infant to the final brain template. […]

Regarding `CC(=O)N[C@H]1[C@H]([C@H](O)[C@H](O)CO)O[C@@](O[C@H]2[C@@H](O)[C@@H](CO)O[C@@H](O[C@H]3[C@H](O)[C@@H](O)C(O)O[C@@H]3CO)[C@@H]2O)(C(=O)O)C[C@@H]1O` (stereo partly shown) [3′SL, 3′-sialyllactose], the “B, association of exposure with MD values” in experiment [1] (left posterior corona radiata, pCR) was −0.10. The “association of exposure with FA values” in experiment [1] is “increased FA values”. In experiment [1], the “association of exposure with MD values” was “reduced MD values”. Moreover, the “B, association of exposure with FA values” in experiment [1] (right DLPFC) is 0.03; in experiment [1] (right aCR), 0.04. Also, in the experiment on piglets, the “learning and memory tasks compared to controls” value was “performed better on learning and memory tasks”. Besides, the cognitive performance entry with piglets is “improved cognitive performance”. The “association of exposure with rCBF” value in experiment [2] was “increased rCBF”. For the same compound, the entries for the “B, association of exposure with rCBF” value in experiment [2] (CC), in experiment [2] (IC) and in experiment [2] (aCR) were 0.06, 0.04 and 0.07, respectively.

As for `CC(=O)N[C@H]1[C@H]([C@H](O)[C@H](O)CO)O[C@@](OC[C@H]2O[C@@H](O[C@H]3[C@H](O)[C@@H](O)[C@H](O)O[C@@H]3CO)[C@H](O)[C@@H](O)[C@H]2O)(C(=O)O)C[C@@H]1O` [6′SL, 6′-sialyllactose, reference compound], in experiment [1], the “association of exposure with FA values” was “not significantly associated” and the “association of exposure with MD values” is on record as “not significantly associated”. In addition, in the experiment with piglets, the “learning and memory tasks compared to controls” value was “performed better on learning and memory tasks”; the cognitive performance result was “improved cognitive performance”. Besides, the “association of exposure with rCBF” value in experiment [2] is on record as “not significantly associated”.
